System: Meloidogyne incognita
Assay: Meloidogyne incognita test (MELGIN), sand, gall formation on salad seedlings after 14 days
Format: in vivo
Settings: application rate 20 ppm, 100% = no galls, 0% = galls equal to untreated control
Experimental: 1. Meloidogyne incognita—test (MELGIN) [table] To produce a suitable preparation of active compound, 1 part by weight of active compound is mixed with the stated amount of solvent, and the concentrate is diluted with water to the desired concentration. Vessels are filled with sand, a solution of the active ingredient, a suspension containing eggs and larvae of the southern root-knot nematode (Meloidogyne incognita) and salad seeds. The salad seeds germinate and the seedlings grow. Galls develop in the roots. After 14 days the nematicidal activity is determined on the basis of the percentage of gall formation. 100% means no galls were found; 0% means the number of galls found on the roots of the treated plants was equal to that in untreated control plants.

N#Cc1cnn(Cc2ccc(Cl)c(S(=O)(=O)NC(=O)c3cn4cc(C(F)(F)F)cc(Cl)c4n3)c2)c1 [Ia-14, 8-chloro-N-({2-chloro-5-[(4-cyano-1H-pyrazol-1-yl)methyl]phenyl}sulfonyl)-6-(trifluoromethyl)imidazo[1,2-a]pyridine-2-carboxamide]
nematicidal activity on the basis of the percentage of gall formation: 100%
